In the experiment the target is T1, rat NPRA (Rattus norvegicus, UniProt P18910).
T1 construct: Full-Length cDNA Cloning and Generation of Cell Lines Overexpressing Natriuretic Peptide Receptors (NPRs); expressed in transfected cells; host or cells: Jump-in T-Rex HEK293 cells, pJTI R4 CMV-TO MCS pA vector, tetracycline induction
T1 sequence (P18910 29-1057): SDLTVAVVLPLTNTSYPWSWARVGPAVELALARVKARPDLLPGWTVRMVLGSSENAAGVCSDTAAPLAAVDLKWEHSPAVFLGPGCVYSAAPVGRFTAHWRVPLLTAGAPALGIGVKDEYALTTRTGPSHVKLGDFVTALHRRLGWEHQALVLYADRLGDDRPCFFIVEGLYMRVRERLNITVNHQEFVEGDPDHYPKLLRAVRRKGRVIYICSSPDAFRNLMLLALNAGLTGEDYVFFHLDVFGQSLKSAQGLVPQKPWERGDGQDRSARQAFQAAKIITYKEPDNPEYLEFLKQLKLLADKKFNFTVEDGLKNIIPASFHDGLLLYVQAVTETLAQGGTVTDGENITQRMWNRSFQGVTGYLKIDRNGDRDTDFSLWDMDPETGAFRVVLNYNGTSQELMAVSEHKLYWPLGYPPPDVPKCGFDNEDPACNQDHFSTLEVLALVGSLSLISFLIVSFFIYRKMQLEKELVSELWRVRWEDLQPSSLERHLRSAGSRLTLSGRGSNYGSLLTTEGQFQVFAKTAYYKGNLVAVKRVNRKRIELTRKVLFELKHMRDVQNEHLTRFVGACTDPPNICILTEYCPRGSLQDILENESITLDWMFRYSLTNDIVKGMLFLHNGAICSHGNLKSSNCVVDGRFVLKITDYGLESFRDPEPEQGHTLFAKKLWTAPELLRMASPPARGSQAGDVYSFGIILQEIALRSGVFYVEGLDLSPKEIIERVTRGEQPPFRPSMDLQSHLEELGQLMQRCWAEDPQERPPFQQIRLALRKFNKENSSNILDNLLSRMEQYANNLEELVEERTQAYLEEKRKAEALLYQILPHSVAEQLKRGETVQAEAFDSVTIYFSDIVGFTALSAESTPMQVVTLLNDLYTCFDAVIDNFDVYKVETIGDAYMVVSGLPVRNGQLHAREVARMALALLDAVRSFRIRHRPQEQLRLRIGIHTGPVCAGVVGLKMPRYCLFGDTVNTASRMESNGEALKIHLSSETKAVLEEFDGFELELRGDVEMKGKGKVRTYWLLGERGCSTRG
The experiment can be described thus: Rat NPRA cGMP activity assay (HTRF) in HEK293 cells overexpressing NPRA. Format: cell-based. Here is the method: All sequences were verified by full-length sequencing performed by ACGT DNA Sequencing Services (Wheeling, IL). The target cDNA was cloned into pJTI R4 CMV-TO MCS pA vector and then co-transfected with pJT1R4 Int vector into Jump-in™ T-Rex™ HEK293 cells for mammalian inducible expression using Jump-in™ T-Rex™ HEK293 kit and Lipofectamine LTX and Plus Reagent following manufacturer's protocols, as briefly described below.
Jump-in™ T-Rex™ HEK293 cells were plated in a BioCOAT® poly-D-lysine coated 6-well plate (Becton Dickinson, cat no. 354413) at 1 million cells/well in 2 mL culture medium and incubated for 18 h at 37° C. and 5% CO2 to 50-70% confluence. A cDNA mix was made in a 50 mL tube by adding 1.5 μg target cDNA, 1.5 μg pJT1R4 Int vector, 3 μL Plus Reagent, and 300 μL Opti-MEM I sequentially into the tube. A reagent mix was made in a separate 50 mL tube by adding 7.5 μL Lipofectamine LTX into 300 μL Opti-MEM I. The mixtures were incubated for 5 min at room temperature. The cDNA mix was then transferred into the reagent mix, mixed well, and incubated for additional 30 min at room temperature. A 500 μL of cDNA/Lipofectamine complex was then transferred to the wells of the cell plate in which the culture medium was changed to 2 mL of transfection medium containing DMEM with 4.5 g/L D-glucose supplemented with 10% FBS-HI and 20 mM HEPES. Transfected cells were cultured for 48 h in an incubator at 37° C. and 5% CO2. A subclone or pool from each overexpressing cell line was maintained in culture medium with the addition of 2 mg/mL G418 sulfate for the clone selection based on its built-in resistance to G418 sulfate for at least 3 weeks with medium changed every 2-3 days.
NPRs were overexpressed in T-Rex™ HEK293 cells following the induction with 300 ng/mL tetracycline in culture medium for 48 h. Induced cell lines in an exponential growth phase were treated with 0.05% trypsin-EDTA for a few seconds at room temperature, harvested in cell medium containing FBS to neutralize the trypsin, counted, and cryopreserved at the density of 2 million cells/mL in cell preservation solution containing FBS-HI with 5% DMSO. Cryopreserved cells were stored at −80° C. for a few days prior to transferring to a liquid nitrogen tank. Induced cell lines were then used for suspension assays to measure the activity of polypeptides to stimulate cGMP production in cGMP assays or for the preparation of cell membranes to measure the binding activity of polypeptides in competitive radioligand binding assays, as described below.
Test polypeptides were added starting at 10 μM concentration and at 10-fold decreasing concentrations to obtain 8-point concentration-response curves (i.e., 10 μM to 1 pM). The quantity of cGMP generated was detected using HTRF® technology and normalized to maximum amount produced by 100 nM amidated rat ANP and the minimum amount produced by assay buffer. Detailed steps are outlined below.
Stock solutions of test polypeptides (2 mM) dissolved in DMSO were first diluted 100-fold in assay buffer containing HBSS with Ca^2+ and Mg^2+, 5 mM HEPES, 0.5 mM IBMX, and 0.1% BSA or 0.1% casein (pH 7.4). The polypeptides were further serially diluted in 1:10 dilution steps in assay buffer containing 0.1% BSA or 0.1% casein to generate 8-point 2× working stock solutions ranging from 20 μM to […].
A 10 μL cell suspension containing 4000 cells was plated in Costar® half-area white opaque 96-well plates (Corning, cat no. 3693). Then 10 μL of assay buffer (basal activity), 200 nM of amidated rat ANP (maximum activity) or 2× working stock solutions of test polypeptides were transferred into the plate. Final concentration of DMSO in each well was 0.5%. The plate was shaken for 15 sec and then incubated for 40 min at room temperature.
The cGMP generated was measured using cGMP kit following the manufacturer's directions, as described below.
(In general: TR-FRET usually uses a lanthanide donor and a delayed reading to cut background.)

[1] abbreviates: assay buffer with 0.1% casein, read-out: cGMP Assay (EC50, pM) w/Casein rNPRA.

Read-outs that look alike come from different tables or passages of the source. Numbered stars: 1 amine (or outer) side, 2 acyl side, 3 side chain; on linkers, the order of the positions; unused ones are H or OH. Bridge positions count the residues as written; N and C are the ends. Square brackets hold non-standard residues; d marks the D form. Peptide text beside a SMILES is read from it. * marks the point of attachment. C20 diacid = O=C(O)CCCCCCCCCCCCCCCCCCC(=O)*; γGlu = O=C(O)[C@H](CCC(=O)[*:2])N[*:1]; 4Pal = N[C@@H](Cc1ccncc1)C(=O)O; AEEA = NCCOCCOCC(=O)O; CH2 = C([*:1])[*:2]

Take `CC[C@H](C)[C@@H]1NC(=O)[C@H](CCCNC(=N)N)NC(=O)[C@H](CC(=O)O)NC(=O)[C@H]([C@@H](C)CC)NC(=O)[C@H](CCCNC(=N)N)NC(=O)[C@H](CCCCN)NC(=O)CNC(=O)[C@H](Cc2ccccc2)NC(=O)[C@@H](NC(=O)[C@H](CO)NC(=O)[C@H](CO)NC(=O)[C@H](CCCNC(=N)N)NC(=O)CCNC(=O)[C@H](CCCCN)NC(=O)[C@H](CCC(=O)O)NC(=O)COCCOCCNC(=O)COCCOCCNC(=O)COCCOCCNC(=O)COCCOCCNC(=O)COCCOCCNC(=O)COCCOCCNC(=O)COCCOCCNC(=O)COCCOCCNC(=O)CNC(=O)[C@H](CCCCN)NC(=O)[C@H](CCC(=O)O)NC(=O)[C@H](CCCCN)NC(=O)[C@H](CCC(=O)O)NC(=O)[C@H](CCCCN)NC(=O)[C@H](CCC(=O)O)NC(=O)CC[C@H](NC(=O)CCCCCCCCCCCCCCCCCCC(=O)O)C(=O)O)CSCSC[C@@H](C(=O)N2CCC[C@H]2C(=O)N[C@@H](CO)C(=O)N[C@@H](Cc2ccccc2)C(=O)N[C@@H](CCCNC(=N)N)C(=O)N[C@@H](Cc2c[nH]cn2)C(=O)NCC(=O)N[C@@H](CO)C(=O)N2CCC[C@H]2C(=O)N[C@@H](CO)C(=O)N[C@@H](CO)C(=O)NCC(=O)N[C@@H](C)C(=O)N2CCC[C@H]2C(=O)N2CCC[C@H]2C(=O)N2CCC[C@H]2C(=O)N[C@@H](CO)C(N)=O)NC(=O)CNC(=O)[C@H](CC(C)C)NC(=O)CNC(=O)[C@H](CO)NC(=O)[C@H](CCC(N)=O)NC(=O)[C@H](Cc2c[nH]cn2)NC(=O)CNC1=O` [Example 120]: the EC50 under setting [1] was found to be 25400 pM.

In the case of “{C20 diacid-γGlu}-EKEKEKG[AEEA][AEEA][AEEA][AEEA]S[4Pal]RRSSCFGGRIDRIGHQSGLGCPSFRHGGKSSGAPPPS-NH2 (linker 18-34 via CH2) [Example 83]”, the EC50 under setting [1] was found to be 16700 pM.

For `CC[C@H](C)[C@@H]1NC(=O)[C@H](CCCNC(=N)N)NC(=O)[C@H](CC(=O)O)NC(=O)[C@H]([C@@H](C)CC)NC(=O)[C@H](CCCNC(=N)N)NC(=O)CNC(=O)CNC(=O)[C@H](Cc2ccccc2)NC(=O)[C@@H](NC(=O)[C@H](CO)NC(=O)[C@H](CO)NC(=O)[C@H](CCCNC(=N)N)NC(=O)[C@H](CCCNC(=N)N)NC(=O)[C@H](Cc2ccncc2)NC(=O)[C@H](CO)NC(=O)CCOCCOCCOCCOCCOCCOCCOCCOCCOCCOCCOCCOCCNC(=O)CNC(=O)[C@H](CCCCN)NC(=O)[C@H](CCC(=O)O)NC(=O)[C@H](CCCCN)NC(=O)[C@H](CCC(=O)O)NC(=O)[C@H](CCCCN)NC(=O)[C@H](CCC(=O)O)NC(=O)CC[C@H](NC(=O)CCCCCCCCCCCCCCCCCCC(=O)O)C(=O)O)CSCSC[C@@H](C(=O)N2CCC[C@H]2C(=O)N[C@@H](CO)C(=O)N[C@@H](Cc2ccccc2)C(=O)N[C@@H](CCCNC(=N)N)C(=O)N[C@@H](Cc2c[nH]cn2)C(=O)NCC(=O)NCC(=O)N[C@@H](CCCCN)C(=O)N[C@@H](CO)C(=O)N[C@@H](CO)C(=O)NCC(=O)N[C@@H](C)C(=O)N2CCC[C@H]2C(=O)N2CCC[C@H]2C(=O)N2CCC[C@H]2C(=O)N[C@@H](CO)C(N)=O)NC(=O)CNC(=O)[C@H](CC(C)C)NC(=O)CNC(=O)[C@H](CO)NC(=O)[C@H](CCC(N)=O)NC(=O)[C@H](Cc2c[nH]cn2)NC(=O)CNC1=O` [Example 82], under setting [1], the EC50 worked out at 25400 pM. On to `CC[C@H](C)[C@@H]1NC(=O)[C@H](CCCNC(=N)N)NC(=O)[C@H](CC(=O)O)NC(=O)[C@H]([C@@H](C)CC)NC(=O)[C@H](CCCNC(=N)N)NC(=O)[C@H](CCCCN)NC(=O)CNC(=O)[C@H](Cc2ccccc2)NC(=O)[C@@H](NC(=O)[C@H](CO)NC(=O)[C@H](CO)NC(=O)[C@H](CCCNC(=N)N)NC(=O)[C@H](CCCNC(=N)N)NC(=O)[C@H](Cc2ccncc2)NC(=O)[C@H](CO)NC(=O)COCCOCCNC(=O)COCCOCCNC(=O)COCCOCCNC(=O)COCCOCCNC(=O)COCCOCCNC(=O)COCCOCCNC(=O)CNC(=O)[C@H](CCCCN)NC(=O)[C@H](CCC(=O)O)NC(=O)[C@H](CCCCN)NC(=O)[C@H](CCC(=O)O)NC(=O)[C@H](CCCCN)NC(=O)[C@H](CCC(=O)O)NC(=O)CC[C@H](NC(=O)CCCCCCCCCCCCCCCCCCC(=O)O)C(=O)O)CSCSC[C@@H](C(=O)N2CCC[C@H]2C(=O)N[C@@H](CO)C(=O)N[C@@H](Cc2ccccc2)C(=O)N[C@@H](CCCNC(=N)N)C(=O)N[C@@H](Cc2c[nH]cn2)C(=O)NCC(=O)N[C@@H](CO)C(=O)NCC(=O)N[C@@H](CO)C(=O)N2CCC[C@H]2C(=O)N[C@@H](CO)C(=O)N[C@@H](CO)C(=O)NCC(=O)N[C@@H](C)C(=O)N2CCC[C@H]2C(=O)N2CCC[C@H]2C(=O)N2CCC[C@H]2C(=O)N[C@@H](CO)C(=O)NCC(N)=O)NC(=O)CNC(=O)[C@H](CC(C)C)NC(=O)CNC(=O)[C@H](CO)NC(=O)[C@H](Cc2ccc(O)cc2)NC(=O)[C@H](Cc2c[nH]cn2)NC(=O)CNC1=O` [Example 117], for which the EC50 (cGMP Assay (EC50, pM) w/BSA rNPRA, assay buffer with 0.1% BSA) is 200000 pM. `CC[C@H](C)[C@@H]1NC(=O)[C@H](CCCNC(=N)N)NC(=O)[C@H](CC(=O)O)NC(=O)[C@H]([C@@H](C)CC)NC(=O)[C@H](CCCNC(=N)N)NC(=O)CNC(=O)CNC(=O)[C@H](Cc2ccccc2)NC(=O)[C@@H](NC(=O)[C@H](CO)NC(=O)[C@H](CO)NC(=O)[C@H](CCCNC(=N)N)NC(=O)[C@H](CCCNC(=N)N)NC(=O)[C@H](Cc2ccncc2)NC(=O)[C@H](CO)NC(=O)CNC(=O)[C@H](CCCCN)NC(=O)[C@H](CCC(=O)O)NC(=O)[C@H](CCCCN)NC(=O)[C@H](CCC(=O)O)NC(=O)[C@H](CCCCN)NC(=O)[C@H](CCC(=O)O)NC(=O)CC[C@H](NC(=O)CCCCCCCCCCCCCCCCCCC(=O)O)C(=O)O)CSSC[C@@H](C(=O)N2CCC[C@H]2C(=O)N[C@@H](CO)C(=O)N[C@@H](Cc2ccccc2)C(=O)N[C@@H](CCCNC(=N)N)C(=O)N[C@@H](Cc2c[nH]cn2)C(N)=O)NC(=O)CNC(=O)[C@H](CC(C)C)NC(=O)CNC(=O)[C@H](CO)NC(=O)[C@H](CCC(N)=O)NC(=O)[C@H](C)NC(=O)CNC1=O` [Example 22] ({C20 diacid-γGlu}-EKEKEKGS[4Pal]RRSSCFGGRIDRIGAQSGLGCPSFRH-NH2; disulfide 14-30): the EC50 (assay buffer with 0.1% BSA, read-out: cGMP Assay (EC50, pM) w/BSA rNPRA) was determined as 192000 pM.

Values taken from patent US20240174727A1, “LONG-ACTING NATRIURETIC PEPTIDES AND USES THEREOF” (Eli Lilly and Company, priority 2022, published 2024).
